{"source": "patent US20250042880A1", "about": "(UNIVERSITY OF KENTUCKY RESEARCH FOUNDATION, priority 2021, published 2025)", "key": {"[1]": {"tested_on": "LS174T cells", "assay": "Cell proliferation inhibition assay, LS174T", "assay_type": "cell-based", "settings": "for IC50: Homo sapiens, LS174T, 120 h, 5 days, viable cells counted", "method": "(§1) Cell proliferation inhibition assay-Cell proliferation inhibition assay was performed as previously reported (48). All compounds to be tested were dissolved at 10 mM in DMSO. The cells were seeded into 12-well plates at a density of 40,000 cells per well in 1 mL of culture medium and were cultured overnight at 37° C. Either 1 μL of the compounds or the vehicle control (DMSO) was added to the cells. After 5 days, the medium was removed, and 200 μL of 0.25% trypsin was added. The cells were resuspended in 800 μL phosphate-buffered saline (PBS) and counted with Vi-CELL XR 2.03 (Beckman Coulter, Inc. USA). The ratio R of the number of viable cells in the compound-treated group to the number of viable cells in the DMSO-treated group was called relative growth rate, and the growth inhibition was calculated as (1−R)*100.\n(§2) Cell proliferation inhibition assay was conducted according to a previous report (48). The cells were split into 12-well plates at a density of 40,000 cells per well in 1 mL of culture medium and were cultured overnight at 37° C. Either 1 μL of the compounds dissolved at 10 mmol/L in DMSO or the vehicle control (DMSO) was added to the cells. After 5 days, removed the medium, and 200 μL of 0.25% trypsin was added. The cells were resuspended in phosphate-buffered saline (PBS) and counted with Vi-CELL XR 2.03 (Beckman Coulter, Inc. USA). The ratio R of the number of viable cells in the compound treatment group to the number of viable cells in the DMSO treatment group was defined as the relative growth rate, and the growth inhibition rate was calculated as (1−R)*100."}, "[2]": {"tested_on": "LS174T xenografts", "assay": "LS174T xenografts in Rag1 mice", "assay_type": "in vivo, mouse", "settings": "DBI-6 40 mg/kg/day IP, BAY-876 3 mg/kg oral, 12 days", "from_the_text": "Rag1 mice of 6 to 8 weeks of age were kindly provided by Institute of Genetics and Developmental Biology, Chinese Academy of sciences. LS174T cells in exponential growth phase were harvested and mixed with an equal volume of Matrigel (Corning, Glendale, Arizona). Each mouse was subcutaneously injected on the lower flanks with 2×10^6 cells. Tumor cell-injected mice were randomly divided into control and treatment groups when tumors were established and reached an average volume of 100 mm^3 (3 male and 3 female mice/group, two tumors on each mouse).\nAfter tumors were established, DBI-6 was formulated in a mixture of ethanol (5%), 20% solutol and 20% Cremophor EL (50%) and Citric acid (45%; 50 mmol/L, pH4.5) and was daily intraperitoneally administered to the DBI-6 group at dose of 40 mg/kg mouse body weight. BAY-876 was dissolved in DMSO (10%), PEG400 (25%), Tween 80 (5%) and PBS (60%) and was given to the mice by gavage feeding to the BAY-876 group at a daily dose of 3 mg/kg mouse body weight. […]\nThe tumor sizes and mouse weights were measured every three days with calipers, and the tumor volume (Length×width^2/2) were calculated. […] Then the tumor sections were analyzed with H&E and Ki-67 staining. Plasma was collected and analyzed with the assay kit (Jiancheng Bioengineering Institute, Nanjing, China) according to the manufacturer's protocol. […]"}, "[3]": {"tested_on": "LS174T cells", "assay": "Apoptosis by flow cytometry (Annexin V-FITC/PI)", "assay_type": "cell-based", "settings": "24 h, DBI-6 3 μM, BAY-876 1 μM, DMSO 17.28%", "method": "LS174T cells were cultured in 6-well plates at 37° C. for 24 hours. 3 μmol/L DBI-6 or 1 μmol/L BAY-876 were added to the cells and incubated for 24 hours. Cells of combination therapy group were treated with both DBI-6 and BAY-876. Then cells were harvested and washed with cold PBS twice and resuspended in 500 μL Binding Buffer. SubsequenμLy, the cells were stained with Annexin V-FITC and propidium iodide (PI) and incubated in dark for 5 minutes. The percentages of apoptosis and necrosis were determined by flow cytometry (BeckmanCoulter, Brea, CA, USA)."}, "[4]": {"tested_on": "HCT116 cells", "assay": "Cell proliferation inhibition assay, HCT116", "assay_type": "cell-based", "settings": "Homo sapiens, HCT-116, 120 h; 5 days, viable cells counted", "method": "as §1, §2"}, "[5]": {"tested_on": "LS174T cells", "assay": "Seahorse oxygen consumption rate assay", "assay_type": "cell-based", "settings": "rotenone/antimycin A replaced with compound", "method": "Seahorse oxygen consumption rate assay-Seahorse assays were conducted in accordance with a published protocol (50). Mitochondrial bioenergetic measurements were performed using the Seahorse XFe96 Extracellular Flow Analyzer (Agilent Technologies, Santa Clara, CA, USA) to measure the oxygen consumption rate (OCR) in different respiratory states. 2.5×10^4 LS174T cells in 80 μL medium were seeded in XF96 Cell Culture microplate and cultured overnight. Then cell culture media were replaced with Seahorse XF modified media before cells were treated. […] To test whether compounds were ETC complex I or III inhibitors, rotenone and antimycin A were replaced with DMSO, or compounds in DMSO solution.\nThe Seahorse assays were performed in compliance with a pre-announced procedure (41). Oxygen consumption was measured using the Seahorse XFe96 Extracellular Flow Analyzer (Agilent Technologies, Santa Clara, CA, USA). 2.5×10^4 LS174T cells were seeded in XF96 Cell Culture microplate in 80 μL culture medium and incubated overnight. On the following day, the cell culture media were exchanged with Seahorse XF modified media. 1.0 μmol/L oligomycin, 1.0 μmol/L FCCP, and a mixture of 1.0 μmol/L rotenone and 1.0 μmol/L antimycin A were sequentially added during the measurements. […]"}}}
{"smiles": "Cc1c(NC(=O)c2cc(C(N)=O)nc3cc(F)ccc23)c(C(F)(F)F)nn1Cc1ccc(C#N)cc1", "note": "[BAY-876, N^4-[1-(4-cyanobenzyl)-5-methyl-3-(trifluoromethyl)-1H-pyrazol-4-yl]-7-fluoroquinoline-2,4-dicarboxamide]", "values": [{"measurement": "inhibition of proliferation of LS174T cells", "setting": "[1]", "result": "inhibited the proliferation of these cell lines at nanomolar concentrations"}, {"measurement": "IC50", "setting": "[1]", "result": 130, "unit": "nM"}, {"measurement": "tumor growth", "setting": "[2]", "result": "Tumor growth was inhibited"}, {"measurement": "apoptosis rate (percentage of apoptotic cells)", "setting": "[3]", "result": 34.57, "unit": "%"}, {"measurement": "IC50", "setting": "[4]", "result": 170, "unit": "nM"}]}
{"smiles": "O=c1c(-c2ccc(Cl)c(Cl)c2)coc2cc(OCCN3CCN(CCO)CC3)ccc12", "note": "[DBI-6, 3-(3,4-dichlorophenyl)-7-(2-(4-(2-hydroxyethyl)piperazin-1-yl)ethoxy)-4H-chromen-4-one]", "values": [{"measurement": "IC50", "setting": "[1]", "result": 1140, "unit": "nM"}, {"measurement": "tumor growth", "setting": "[2]", "result": "Tumor growth was inhibited"}, {"measurement": "apoptosis rate (percentage of apoptotic cells)", "setting": "[3]", "result": 30.61, "unit": "%"}, {"measurement": "oxygen consumption rate (OCR)", "setting": "[5]", "result": "suppressed OCR in a similar manner to rotenone/antimycin A"}, {"measurement": "IC50", "setting": "[4]", "result": 530, "unit": "nM"}]}
